In a melting point compilation (Tetko et al.):

melting point | Compound
89 °C | O=C(O)c1ccc(OC(=O)c2ccccc2)cc1
140 °C | CCCCNC(=O)NCC(=O)O
200 to 203 °C | O=C(O)C=CC(=O)Nc1ccc(Cl)cc1
44 °C | COC(=O)C1(C)CCC(CCc2ccccc2)C1(C)C (stereo unspecified)
0.5 °C | Brc1ccncc1
86 °C | CC(C)(C)OC(=O)N1CCC(OCC(=O)NC2CC2)CC1
158 °C | O=C(O)CCSSCCC(=O)O
200 °C | CC1(C)C2CC[C@]1(CS(=O)(=O)O)C(=O)C2
56 °C | OCCCCCCC(F)(F)C(F)(F)C(F)(F)C(F)(F)C(F)(F)C(F)(F)C(F)(F)C(F)(F)F
53 °C | Cc1ccc2c(c1)CC2=O
-100 °C | CC1=CC1
171 °C | CN(C)c1ccc(C(O)C2C(=O)N(c3ccccc3)N=C2C(F)(F)F)cc1 (stereo unspecified)
64 to 67 °C | Clc1cccc(Cl)c1I
129 to 131 °C | Cc1nn(-c2ccccc2)c(N)c1C#N
-95 °C | FC(F)(F)C(F)(Br)C(F)(F)Br (stereo unspecified)
115 to 117 °C | CCCCCCCCCCCCCCCCS(=O)(=O)c1ccc(N)cc1
85 to 86 °C | Cc1nn(-c2ccccc2)c(C)c1C#N
170 °C | CC(C)(C#N)Nc1nc(Cl)nc(NC2CC2)n1
94 to 95 °C | O=Cc1cc(Br)cc2c1OCC2
201 °C | O=C(Nc1ccccn1)c1cc([N+](=O)[O-])cc([N+](=O)[O-])c1
131 °C | CCN(CC)C(=O)C1CN2CCc3cc(OC)c(OC)cc3C2CC1OC(C)=O (stereo unspecified)
110 to 112 °C | CCOC(=O)c1c(C)oc(NC(=O)Nc2ccccc2)c1C(=O)OCC
83 to 86 °C | Cn1nc(-c2ccc(S(=O)(=O)Cl)s2)cc1C(F)(F)F
231 to 233 °C | O=c1[nH]c2scc(-c3ccccc3)c2c(=O)n1-c1cccc(C(F)(F)F)c1

melting point | Compound
105 °C | OCC(O)CN1CCN(c2ccccc2)CC1 (stereo unspecified)
145 to 146 °C | CSc1nc(=O)n(C)c2c1CCC2
49 °C | Cc1cc(S(=O)(=O)Cl)c(C)cc1Cl
180 °C | CC(=O)c1cc(C(C)=O)c(O)cc1O
51.5 to 52 °C | C=C(F)C(=O)O
201 to 203 °C | Cc1ccc(C)c(N/N=C(/C#N)c2nc(C)c(/N=N/c3ccccc3)s2)c1
197 to 201 °C | CC(=O)NC(C(=O)O)c1ccccc1 (stereo unspecified)
52 °C | CCOc1cc(C=O)ccc1OC
192 to 194 °C | CCC1=C(C=NNc2ccc([N+](=O)[O-])cc2[N+](=O)[O-])CCCC1
30 to 34 °C | Fc1cc(Br)cc(Br)c1Br
290 °C | OC1NN(c2ccccc2)C(O)C1=Cc1ccc2c(c1)OCO2 (stereo unspecified)
60 °C | O=C(CCCl)c1ccc(Br)cc1
93 to 95 °C | O=C(N=C=S)c1cccc([N+](=O)[O-])c1
124 to 129 °C | CCOC(=O)C=P(c1ccccc1)(c1ccccc1)c1ccccc1
71 to 73 °C | Cc1ccc(C#N)c(S(=O)(=O)Cl)c1
68 °C | CC(CN(C)C)CN1c2ccccc2Sc2ccccc21 (stereo unspecified)
249 °C | N#C/C(=C\c1ccc(Cl)cc1Cl)c1nc2ccccc2[nH]1
126 °C | OC1c2ccccc2C=Cc2ccccc21
58 to 59 °C | Cc1cc(Br)c(N)c([N+](=O)[O-])c1
143 °C | CCCCCCCCOc1ccc(NC(=O)c2ccc(CC)cc2)cc1
102 °C | CON(C)C(=O)Nc1ccc(Oc2ccc3c(c2)OC(C)(OC)CC3(C)C)cc1 (stereo unspecified)
149 °C | Nc1c(F)cc(O)cc1F
82 °C | Brc1cccc2cnccc12
83 °C | Cc1ccc2sc(S(=O)(=O)Cl)cc2c1

melting point | Compound
117 to 121 °C | CSC(=CC(=C(C#N)C#N)c1ccccc1)SC
296 °C | Nc1c(C(=O)O)ccc2c1C(=O)c1ccccc1C2=O
68 °C | Nc1cc(F)c(F)c(Br)c1
38 °C | COc1ncc(F)cc1F
85 °C | O=C(O)CS(=O)(=O)O
184 to 185 °C | CCCOC(=O)C1=C(C)NC(=O)NC1c1ccc2c(c1)OCO2 (stereo unspecified)
-24 °C | CNCc1ccccc1
219 °C | CC(=Nc1c(O)ccc2ccccc12)c1c(O)c2ccccc2n(-c2ccccc2)c1=O
230 °C | COC(=O)C1C2CC3c4[nH]c5ccccc5c4CCN3CC2CC(OC(=O)c2cc(OC)c(OC)c(OC)c2)C1OC (stereo unspecified)
128 °C | CN(C)c1ccc(/C=C(\C#N)c2nc(-c3cccc4ccccc34)cs2)cc1
158 °C | CC1(C)OC(=O)C2(Cc3ccccc3C2)C(=O)O1
222 °C | CC1=CCC/C1=N\Nc1ccc([N+](=O)[O-])cc1[N+](=O)[O-]
92 to 94 °C | O=C(Cl)C1=Cc2cc(Cl)ccc2OC1
82 °C | C(=Cc1ccccc1)CCC=Cc1ccccc1
140 °C | CCOC(=O)Cc1cc(CC(=O)OCC)c(NC(=O)OCC)cc1NC(=O)OCC
80 °C | Cc1sc(-c2cccnc2)nc1-c1ccccc1
294 °C | O=C1c2cc([N+](=O)[O-])ccc2-c2ccc([N+](=O)[O-])cc21
205 to 206 °C | Cc1nn(-c2ccccc2)nc1C(=O)NNC(=S)Nc1ccccc1
84 °C | C#CCOc1ccc(N)cc1C(=O)NCCCC
124 °C | O=C(C(=O)C(Br)c1ccccc1)C(Br)c1ccccc1 (stereo unspecified)
194 °C | O=C(O)C=CC(=O)Nc1ccc(I)cc1
-25 °C | CCOCCOCCOC(C)=O
101 °C | O=c1c2ccccc2cc2n1CCc1ccccc1-2
84 °C | Cc1nc2cc(C)c(C)cc2s1

Compound | melting point
NCC(F)C(=O)O (racemic) | 222 to 223 °C
N#Cc1cc(I)c(O)c(I)c1 | 212 °C
CCN(CC)C(=O)Cl | -32 °C
Clc1cccc(-c2cccc(Cl)c2)c1 | 29 °C
Sc1ccccc1 | -14.9 °C
Brc1ccc2c(c1)Oc1cc(Br)ccc1O2 | 145 °C
CC(=O)OC1CCC2C3CCC45OC4C(=O)C=CC5(O)C3CCC12C (stereo unspecified) | 178 °C
CC12CC(=O)C3C(CCC4=CC(=O)CCC43C)C1CCC2=O (stereo unspecified) | 222 °C
O=[N+]([O-])c1ccc2ncccc2c1 | 154 °C
O=C1NC(=S)NC(=O)C1=NNc1ccc(C(=O)O)cc1 | 340 °C
C=C[Si]12OCCN(CCO1)CCO2 | 163 to 165 °C
O=C1NC(=O)C(=Cc2ccc(-c3ccc(Br)cc3)o2)C(=O)N1 | 255 °C
Fc1ccc(CN2CCNCC2)cc1 | 64 to 65 °C
CCCCOCCOP(=O)(OCCOCCCC)OCCOCCCC | -70 °C
O=C=Nc1ccc(I)cc1 | 45 °C
O=[N+]([O-])c1ccc(Nc2ccccc2)cc1 | 135 °C
Cc1ccc(C(N)C(N)c2ccc(C)cc2)cc1 (stereo unspecified) | 113 to 117 °C
O=[N+]([O-])c1c(Br)sc(Br)c1[N+](=O)[O-] | 136 °C
Cc1ccc2cc(C)ccc2c1 | 112 °C
